From US4882339A, “4-Amino-substituted 1,2-dihydroxynaphthalene derivatives useful in inhibiting 5-lipoxygenase activity in mammals” (Ciba-Geigy Corporation, priority 1987, dated 1989)
Like-named read-outs stand apart in the source and are kept apart here.

Experiments:
[1] = test system: 5-lipoxygenase; experiment: Ex vivo inhibition of 5-lipoxygenase (A-23187-stimulated LTB4 formation in whole blood), dog
Description: (§1) Furthermore the inhibition of 5-lipoxygenase in vivo is determined after oral or i.v. administration to rats or dogs by measuring ex vivo in whole blood the inhibition of A-23187-stimulated LTB4 formation as compared to non-treated control animals.

[2] = test system: rat pleurisy model of inflammation; experiment: Carrageenin-induced pleurisy model of inflammation in the rat; type: in vivo; conditions: 30 mg/kg p.o. b.i.d. for two days; 48 hours after carrageenin
[3] = target: T1, 5-lipoxygenase (Cavia porcellus, UniProt A0A286X958); experiment: Inhibition of the synthesis of 5-HETE and LTB4 in A-23187-stimulated guinea pig polymorphonuclear leukocytes; type: cell-based; conditions: for IC50: in vitro
T1 construct: A-23187-stimulated guinea pig polymorphonuclear leukocytes; endogenous in cells; host or cells: guinea pig polymorphonuclear leukocytes
T1 sequence (A0A286X958 1-674): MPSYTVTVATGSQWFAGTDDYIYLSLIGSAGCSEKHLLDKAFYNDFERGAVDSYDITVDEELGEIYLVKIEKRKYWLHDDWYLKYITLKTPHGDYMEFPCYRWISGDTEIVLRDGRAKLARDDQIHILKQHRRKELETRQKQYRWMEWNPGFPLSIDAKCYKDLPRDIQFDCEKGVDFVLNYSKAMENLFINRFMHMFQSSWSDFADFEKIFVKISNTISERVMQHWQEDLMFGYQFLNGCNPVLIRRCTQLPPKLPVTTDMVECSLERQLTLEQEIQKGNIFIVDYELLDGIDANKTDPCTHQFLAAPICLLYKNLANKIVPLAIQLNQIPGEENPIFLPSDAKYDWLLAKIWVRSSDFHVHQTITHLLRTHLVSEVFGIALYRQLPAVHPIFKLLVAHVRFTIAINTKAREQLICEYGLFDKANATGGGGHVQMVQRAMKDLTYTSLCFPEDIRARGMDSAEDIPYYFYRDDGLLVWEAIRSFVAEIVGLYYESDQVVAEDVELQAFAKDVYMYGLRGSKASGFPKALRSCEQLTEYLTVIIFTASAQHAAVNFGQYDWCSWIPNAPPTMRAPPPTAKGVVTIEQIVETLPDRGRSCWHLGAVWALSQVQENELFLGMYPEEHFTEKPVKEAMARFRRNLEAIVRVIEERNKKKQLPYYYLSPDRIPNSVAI
Description: 5-Lipoxygenase inhibition is determined e.g. by measuring the percent inhibition of the synthesis of 5-HETE [(5S)-5-hydroxy-6,8,11,14-eicosa-tetraenoic acid] and leukotriene B4 (LTB4, 5,12-dihydroxy-6,8,10,14-eicosatetraenoic acid) in A-23187-stimulated guinea pig polymorphonuclear leukocytes, essentially according to radiometric thin-layer chromatogrpahic assays described by Walker and Dawson (J. Pharm. Pharmacol. 31: 778, 1979) and Jakschik and Lee (Nature 287: 51, 1980) used to measure the formation of 5-HETE and LTB4 -like products from ^14 C-arachidonic acid. IC50 values are determined graphically as the concentration of test compound at which the synthesis of 5-HETE and LTB4 -like products is reduced to 50% of their respective control values.

[4] = test system: 5-lipoxygenase; experiment: Ex vivo inhibition of 5-lipoxygenase (A-23187-stimulated LTB4 formation in whole blood), rat; conditions: about 10-100 mg/kg p.o.
Description: as §1

[5] = In vivo metabolite identification after administration of 4-(N-methylcyclohexylamino)-1,2-diacetoxynaphthalene

Row | IC50 ([3]; read-out: IC50 for inhibition of the formation of LTB4) | SMILES | inhibition of 5-lipoxygenase activity ex vivo ([1]; 1 mg/kg i.v.) | inhibition of 5-lipoxygenase activity ex vivo ([1]; 100 mg/kg p.o.) | cell count of monocytes [2] | cell count of polymorphonuclear leukocytes [2] | exudate volume [2] | IC50 ([3]; read-out: IC50 for LTB4 formation) | inhibition of the formation of 5-HETE and leukotriene B4 ([3]; result in words) | inhibition of 5-lipoxygenase activity ex vivo [4] | in vivo metabolite [5]
1 | – | CC(=O)Oc1cc(N(C)C2CCCCC2)c2ccccc2c1OC(C)=O [4-(N-methylcyclohexylamino)-1,2-diacetoxynaphthalene] | inhibits 5-lipoxygenase activity | inhibits 5-lipoxygenase activity | lowers the cell count of polymorphonuclear leukocytes and of monocytes | lowers the cell count of polymorphonuclear leukocytes | causes inhibition of exudate volume | ~1000 nM | inhibits the formation of 5-HETE [(5S)-5-hydroxy-6,8,11,14-eicosa-tetraenoic acid] and leukotriene B4 | inhibits 5-lipoxygenase activity | –
2 | ~500 nM | CN(C1=CC(=O)C(=O)c2ccccc21)C1CCCCC1 [4-(N-methylcyclohexylamino)-1,2-naphthoquinone] | – | – | – | – | – | – | – | – | identified as an in vivo metabolite of 4-(N-methylcyclohexylamino)-1,2-diacetoxynaphthalene
